This note sets out measurements from patent US12559529B2, “NPY2 receptor agonists” (Boehringer Ingelheim International GmbH, priority 2019, dated 2026).

*1 amine or outer side, *2 acyl side, *3 side chain or, on linkers, in order; H or OH if unused. Where a SMILES comes first, the peptide text is derived from it. Side-chain parts run from the residue outwards. The star is where a group is joined. C18 diacid = O=C(O)CCCCCCCCCCCCCCCCC(=O)*; γGlu = O=C(O)[C@H](CCC(=O)[*:2])N[*:1]; Isovaleryl = CC(C)CC(=O)*; AEEA = NCCOCCOCC(=O)O

For the experiment, the target named is T1, Human Neuropeptide Y2 Receptor (Homo sapiens, UniProt P49146).
T1 construct: purchased CHEMICON HTS066M
T1 sequence (P49146 1-381): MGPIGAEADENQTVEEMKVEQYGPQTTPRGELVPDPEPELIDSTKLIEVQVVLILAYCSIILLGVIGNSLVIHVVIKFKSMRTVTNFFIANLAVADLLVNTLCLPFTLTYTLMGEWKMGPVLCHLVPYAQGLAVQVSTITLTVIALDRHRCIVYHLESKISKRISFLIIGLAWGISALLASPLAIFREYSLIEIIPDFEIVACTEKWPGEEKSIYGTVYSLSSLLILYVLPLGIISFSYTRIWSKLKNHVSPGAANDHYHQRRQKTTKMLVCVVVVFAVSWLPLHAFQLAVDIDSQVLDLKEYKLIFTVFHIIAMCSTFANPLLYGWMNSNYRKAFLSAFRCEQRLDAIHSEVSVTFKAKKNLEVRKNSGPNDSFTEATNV
In words: Radioligand binding competition assay (RLB). To be noted: Table 3; human 125I-PYY (1-36) 0.02 nM, Y2 receptor membranes; read-out: Ki. In a few lines: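 Membranes (0.5 μg/well) and test peptides, serially diluted from 1 mM DMSO stocks, were incubated 2 hours at room temperature in HEPES buffer pH 7.4 with Mg, Ca and ovalbumin.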

Consider `CC(C)CC(=O)N[C@@H](C)C(=O)N1CCC[C@H]1C(=O)N[C@@H](CCC(=O)O)C(=O)N[C@@H](CCCCNC(=O)COCCOCCNC(=O)COCCOCCNC(=O)CC[C@H](NC(=O)CCCCCCCCCCCCCCCCC(=O)O)C(=O)O)C(=O)N1CCC[C@H]1C(=O)N1CCC[C@H]1C(=O)N[C@@H](C)C(=O)N[C@@H](CC(=O)O)C(=O)N[C@@H](C)C(=O)N[C@@H](CO)C(=O)N1CCC[C@H]1C(=O)N[C@@H](CCC(=O)O)C(=O)N[C@@H](CCC(=O)O)C(=O)N[C@@H](CC(C)C)C(=O)N[C@@H](CCC(N)=O)C(=O)N[C@@H](CCCNC(=N)N)C(=O)N[C@@H](Cc1ccc(O)cc1)C(=O)N[C@@H](Cc1ccc(O)cc1)C(=O)N[C@H](C(=O)N[C@@H](CCC(=O)O)C(=O)N[C@@H](CC(C)C)C(=O)N[C@@H](CCCNC(=N)N)C(=O)N[C@@H](Cc1c[nH]cn1)C(=O)N[C@@H](Cc1ccc(O)cc1)C(=O)N[C@@H](Cc1ccc(O)cc1)C(=O)N[C@@H](CC(N)=O)C(=O)N[C@@H](Cc1c[nH]c2ccccc12)C(=O)N[C@@H](CC(C)C)C(=O)N[C@H](C(=O)N[C@@H](CCCNC(=N)N)C(=O)N[C@@H](CCC(N)=O)C(=O)N[C@@H](CCCNC(=N)N)C(=O)N[C@@H](Cc1ccc(O)cc1)C(N)=O)[C@@H](C)O)C(C)C` [Compound 166, N{alpha-4}-(3-methylbutanoyl)-N{epsilon-7}-[2-(2-{2-[2-(2-{2-[(4S)-4-carboxy-4-(17-carboxyheptadecanamido)butanamido]ethoxy}ethoxy)acetamido]ethoxy}ethoxy)acetamido]-[4A,7K,9P,10A,18Q,22V,23E,28Y,30W,31L]hPYY (4-36)], for which the Ki (as a rule, the equilibrium dissociation constant of an inhibitor or competing ligand from its target) came out at 0.66 nM.
Consider `CC(C)CC(=O)N[C@@H](C)C(=O)N1CCC[C@H]1C(=O)N[C@@H](CCC(=O)O)C(=O)N[C@@H](CCCCNC(=O)COCCOCCNC(=O)COCCOCCNC(=O)CC[C@H](NC(=O)CCCCCCCCCCCCCCCCC(=O)O)C(=O)O)C(=O)N1CCC[C@H]1C(=O)N[C@@H](CCC(=O)O)C(=O)N[C@@H](CCC(=O)O)C(=O)N[C@@H](CCC(=O)O)C(=O)N[C@@H](C)C(=O)N[C@@H](CO)C(=O)N1CCC[C@H]1C(=O)N[C@@H](CCC(=O)O)C(=O)N[C@@H](CCC(=O)O)C(=O)N[C@@H](CC(C)C)C(=O)N[C@@H](CCC(N)=O)C(=O)N[C@@H](CCCNC(=N)N)C(=O)N[C@@H](Cc1ccc(O)cc1)C(=O)N[C@@H](Cc1ccc(O)cc1)C(=O)N[C@H](C(=O)N[C@@H](C)C(=O)N[C@@H](CC(C)C)C(=O)N[C@@H](CCCNC(=N)N)C(=O)N[C@@H](Cc1c[nH]cn1)C(=O)N[C@@H](Cc1ccc(O)cc1)C(=O)N[C@@H](Cc1ccc(O)cc1)C(=O)N[C@@H](CC(N)=O)C(=O)N[C@@H](Cc1c[nH]c2ccccc12)C(=O)N[C@@H](CC(C)C)C(=O)N[C@H](C(=O)N[C@@H](CCCNC(=N)N)C(=O)N[C@@H](CCC(N)=O)C(=O)N[C@@H](CCCNC(=N)N)C(=O)N[C@@H](Cc1ccc(O)cc1)C(N)=O)[C@@H](C)O)C(C)C` [Compound 169, N{alpha-4}-(3-methylbutanoyl)-N{epsilon-7}-[2-(2-{2-[2-(2-{2-[(4S)-4-carboxy-4-(17-carboxyheptadecanamido)butanamido]ethoxy}ethoxy)acetamido]ethoxy}ethoxy)acetamido]-[4A,7K,9E,11E,18Q,22V,23A,28Y,30W,31L]hPYY (4-36)], for which the Ki stood at 2.34 nM.
With `CC(C)CC(=O)N[C@@H](C)C(=O)N1CCC[C@H]1C(=O)N[C@@H](CCC(=O)O)C(=O)N[C@@H](CCCCNC(=O)COCCOCCNC(=O)COCCOCCNC(=O)CC[C@H](NC(=O)CCCCCCCCCCCCCCCCC(=O)O)C(=O)O)C(=O)N1CCC[C@H]1C(=O)N[C@@H](CCC(=O)O)C(=O)N[C@@H](CCC(=O)O)C(=O)N[C@@H](CCC(=O)O)C(=O)N[C@@H](C)C(=O)N[C@@H](CO)C(=O)N1CCC[C@H]1C(=O)N[C@@H](CCC(=O)O)C(=O)N[C@@H](CCC(=O)O)C(=O)N[C@@H](CC(C)C)C(=O)N[C@@H](CCC(=O)O)C(=O)N[C@@H](CCC(N)=O)C(=O)N[C@@H](Cc1ccc(O)cc1)C(=O)N[C@@H](Cc1ccc(O)cc1)C(=O)N[C@H](C(=O)N[C@@H](CO)C(=O)N[C@@H](CC(C)C)C(=O)N[C@@H](CCCNC(=N)N)C(=O)N[C@@H](Cc1c[nH]cn1)C(=O)N[C@@H](Cc1ccc(O)cc1)C(=O)N[C@@H](Cc1ccc(O)cc1)C(=O)N[C@@H](CC(N)=O)C(=O)N[C@@H](Cc1c[nH]c2ccccc12)C(=O)N[C@@H](CC(C)C)C(=O)N[C@H](C(=O)N[C@@H](CCCNC(=N)N)C(=O)N[C@@H](CCC(N)=O)C(=O)N[C@@H](CCCNC(=N)N)C(=O)N[C@@H](Cc1ccc(O)cc1)C(N)=O)[C@@H](C)O)C(C)C` [Compound 170, N{alpha-4}-(3-methylbutanoyl)-N{epsilon-7}-[2-(2-{2-[2-(2-{2-[(4S)-4-carboxy-4-(17-carboxyheptadecanamido)butanamido]ethoxy}ethoxy)acetamido]ethoxy}ethoxy)acetamido]-[4A,7K,9E,11E,18E,19Q,22V,28Y,30W,31L]hPYY (4-36)] (Isovaleryl-APEK([AEEA-AEEA-γGlu-C18 diacid])PEEEASPEELEQYYVSLRHYYNWLTRQRY-NH2) the figure was 12.3 nM; with `CC(C)CC(=O)N[C@@H](C)C(=O)N1CCC[C@H]1C(=O)N[C@@H](CCC(=O)O)C(=O)N[C@@H](CCCCNC(=O)COCCOCCNC(=O)COCCOCCNC(=O)CC[C@H](NC(=O)CCCCCCCCCCCCCCCCC(=O)O)C(=O)O)C(=O)N1CCC[C@H]1C(=O)N[C@@H](CCC(=O)O)C(=O)N[C@@H](CCC(=O)O)C(=O)N[C@@H](CC(=O)O)C(=O)N[C@@H](CO)C(=O)N[C@@H](CO)C(=O)N1CCC[C@H]1C(=O)N[C@@H](CCC(=O)O)C(=O)N[C@@H](CCC(=O)O)C(=O)N[C@@H](CC(C)C)C(=O)N[C@@H](CCC(N)=O)C(=O)N[C@@H](CCCNC(=N)N)C(=O)N[C@@H](Cc1ccc(O)cc1)C(=O)N[C@@H](Cc1ccc(O)cc1)C(=O)N[C@H](C(=O)N[C@@H](CCC(=O)O)C(=O)N[C@@H](CC(C)C)C(=O)N[C@@H](CCCNC(=N)N)C(=O)N[C@@H](Cc1c[nH]cn1)C(=O)N[C@@H](Cc1ccc(O)cc1)C(=O)N[C@@H](Cc1ccc(O)cc1)C(=O)N[C@@H](CC(N)=O)C(=O)N[C@@H](Cc1c[nH]c2ccccc12)C(=O)N[C@@H](CC(C)C)C(=O)N[C@H](C(=O)N[C@@H](CCCNC(=N)N)C(=O)N[C@@H](CCC(N)=O)C(=O)N[C@@H](CCCNC(=N)N)C(=O)N[C@@H](Cc1ccc(O)cc1)C(N)=O)[C@@H](C)O)C(C)C` [Compound 177, N{alpha-4}-(3-methylbutanoyl)-N{epsilon-7}-[2-(2-{2-[2-(2-{2-[(4S)-4-carboxy-4-(17-carboxyheptadecanamido)butanamido]ethoxy}ethoxy)acetamido]ethoxy}ethoxy)acetamido]-[4A,7K,9E,12S,18Q,22V,23E,28Y,30W,31L]hPYY (4-36)], 2.55 nM.
Next, `CC(C)CC(=O)N[C@@H](C)C(=O)N1CCC[C@H]1C(=O)N[C@@H](CCC(=O)O)C(=O)N[C@@H](CCCCNC(=O)COCCOCCNC(=O)COCCOCCNC(=O)CC[C@H](NC(=O)CCCCCCCCCCCCCCCCC(=O)O)C(=O)O)C(=O)N1CCC[C@H]1C(=O)N[C@@H](CCC(=O)O)C(=O)N[C@@H](CCC(=O)O)C(=O)N[C@@H](CC(=O)O)C(=O)N[C@@H](C)C(=O)N[C@H](C(=O)N1CCC[C@H]1C(=O)N[C@@H](CCC(=O)O)C(=O)N[C@@H](CCC(=O)O)C(=O)N[C@H](C(=O)N[C@@H](CCC(=O)O)C(=O)N[C@@H](CCCNC(=N)N)C(=O)N[C@@H](Cc1ccc(O)cc1)C(=O)N[C@@H](Cc1ccc(O)cc1)C(=O)N[C@H](C(=O)N[C@@H](CO)C(=O)N[C@@H](CC(C)C)C(=O)N[C@@H](CCCNC(=N)N)C(=O)N[C@@H](Cc1c[nH]cn1)C(=O)N[C@@H](Cc1ccc(O)cc1)C(=O)N[C@@H](Cc1ccc(O)cc1)C(=O)N[C@@H](CC(N)=O)C(=O)N[C@@H](Cc1c[nH]c2ccccc12)C(=O)N[C@@H](CC(C)C)C(=O)N[C@H](C(=O)N[C@@H](CCCNC(=N)N)C(=O)N[C@@H](CCC(N)=O)C(=O)N[C@@H](CCCNC(=N)N)C(=O)N[C@@H](Cc1ccc(O)cc1)C(N)=O)[C@@H](C)O)C(C)C)[C@@H](C)O)[C@@H](C)O` [Compound 178, N{alpha-4}-(3-methylbutanoyl)-N{epsilon-7}-[2-(2-{2-[2-(2-{2-[(4S)-4-carboxy-4-(17-carboxyheptadecanamido)butanamido]ethoxy}ethoxy)acetamido]ethoxy}ethoxy)acetamido]-[4A,7K,9E,13T,17T,18E,22V,28Y,30W,31L]hPYY (4-36)] (Isovaleryl-APEK([AEEA-AEEA-γGlu-C18 diacid])PEEDATPEETERYYVSLRHYYNWLTRQRY-NH2): 2.05 nM.
